This is an account of results in PMC11793105, “A kalihinol analog disrupts apicoplast function and vesicular trafficking in P. falciparum malaria” (Science (New York, N.Y.), 2024).

Assay [1] concerns P. falciparum HB3 (MRA-155). Description: SYBR Green I growth inhibition assay, HB3. It counts as cell-based, Plasmodium falciparum. Conditions: early-ring stage, 72 h exposure. The method, then:
(§1) Fig. 1. […] (B) SYBR Green–based dose response assays were conducted on early-ring stage parasites (6 hours after invasion). […] 3D7 WT (blue), NF54 (green), drug-resistant strains Dd2 (red), HB3 (black), W2 (gray), and D10-ACP-GFP (purple) lines (Sigmoidal, 4PL, X is concentration, n ≥ 3, nonlinear regression, CI: 95%). (C) Schematic diagram of the development of P. falciparum after two consecutive erythrocytic cycles. The time points at which MED6-189 was introduced are depicted in green. HPS, hours post synchronization. […] The images depict various developmental stages of the parasite’s intraerythrocytic life cycle. Bordered images represent time points when drug was first introduced (n = 3 biological replicates, P < 0.05).
(§2) Detailed information on materials and methods is available in the supplementary materials. […] P. knowlesi assays were quantitatively measured by flow cytometry using SYBR Green I and Mitrotracker Deep Red, as previously described ([84], [85]), on a Beckman Coulter CytoFLEX. […]
(§3) P. falciparum in vitro SYBR green fluorescence-based assays The anti-malarial activity of individual analogues were evaluated in-vitro against P. falciparum 3D7 (MRA-102, drug […]
(§4) green-I based fluorescence assay. Parasite growth rate and stages of development were determined via microscopy through Giemsa-stained smears of the cultures. […]

The subject of assay [2] is P. falciparum D10-ACP-GFP (MRA-568). Put plainly: SYBR Green I growth inhibition assay, D10-ACP-GFP. The class given is cell-based, Plasmodium falciparum. Conditions: early-ring stage, 72 h exposure. The method, then: as §1, with “Bordered images represent time points when drug was first introduced (n = 3 biological replicates, P < 0.05).” left out
Fluorescence microscopy analyses were conducted using D10-ACP-GFP transgenic parasites, which express a fusion of the acyl carrier protein (ACP) with green fluorescent protein (GFP) in the parasite apicoplast ([25]). […]
as §2, §3
green-I based fluorescence assay. […]

For assay [3], the system named is P. knowlesi YH1 human erythrocyte infecting parasites. Put plainly: P. knowlesi in vitro IC50 assay (flow cytometry), human erythrocytes. It counts as cell-based. The note with it: Plasmodium knowlesi. On the procedure: Fig. 5. In vivo and broad-spectrum antimalarial efficacy of MED6-189. (A) The in vivo efficacy of MED6-189 was evaluated in a humanized mouse model infected with P. falciparum (blue) compared with untreated controls (black). […] The graphs illustrate the logarithmic growth of parasites (y axis) in response to varying drug concentrations (x axis). Error bars represent standard deviations from two independent experiments conducted in triplicate. The regression line is derived from a nonlinear regression analysis (variable slope with four parameters, least squares fit). (C) Proposed mode of action of MED6-189 in P. falciparum–infected erythrocytes. […]
as §2, §3, §4
On the technique in general: A flow cytometer gives signals particle by particle.

The next assay has as its system hTERT. Put plainly: Human cell line activity, hTERT. It counts as cell-based. The note with it: read-out: IC50 (µM) hTERT.
Another assay has as its system HepG2. Description: Human cell line activity, HepG2. The note with it: HepG2, read-out: IC50 (µM) HepG2. It counts as cell-based.
Assay [4] deals with hPXR (human pregnane X receptor) (Homo sapiens, UniProt O75469). Put plainly: Enhanced Cross Screen Panel (eXP): hPXR. It counts as in vitro ADME.
hPXR (human pregnane X receptor), sequence (O75469 whole entry): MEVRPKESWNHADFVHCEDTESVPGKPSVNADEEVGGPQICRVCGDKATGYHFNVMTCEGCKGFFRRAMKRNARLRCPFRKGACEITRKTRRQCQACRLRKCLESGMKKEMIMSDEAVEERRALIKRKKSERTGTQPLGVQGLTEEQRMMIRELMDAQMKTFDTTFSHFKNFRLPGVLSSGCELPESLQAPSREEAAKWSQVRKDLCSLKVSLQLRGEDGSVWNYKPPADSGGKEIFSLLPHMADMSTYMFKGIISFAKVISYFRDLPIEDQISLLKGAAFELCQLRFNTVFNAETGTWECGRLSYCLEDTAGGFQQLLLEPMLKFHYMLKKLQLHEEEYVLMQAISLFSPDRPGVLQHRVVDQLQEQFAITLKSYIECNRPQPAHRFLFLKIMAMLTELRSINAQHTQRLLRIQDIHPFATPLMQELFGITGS

In the case of `[C-]#[N+][C@]1(C)CC[C@H]2[C@@H]([C@@H](C(C)C)CC[C@]2(C)[N+]#[C-])[C@H]1O` [MED6-189], the IC50 in assay [1] (Plasmodium falciparum, HB3, 72 h) is 23 ± 2 nM; in assay [1], 22.8 nM; in assay [2] (Plasmodium falciparum, D10, 72 h), 17 nM; in assay [2] it was 17.2 nM; in assay [3] it was 309 ± 42 nM; with hTERT, 26 µM. The results for the IC50 (in the assay on HepG2; in assay [4]) were 34 µM and 7400 nM, respectively.

What is called IC50 is the concentration that inhibits the measured activity by half.
